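Five concentrations, 48 hours, 96-well plates. GI50 = concentration required for 50% inhibition of growth.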 Active and inactive are the calls of the source. Rule as the data show it: active = GI50 up to about 1.1 µM and inactive = higher.

Test systems include OVCAR-8; MOLT-4; SK-MEL-5; DU-145; LOX IMVI; HL-60; NCI-H522; MDA-MB-231; IGROV-1; ACHN; UO-31; U-251; SK-OV-3; SN12C; MCF7; PC-3; NCI-H226; SW-620; HOP-62; KM12.
What all share (assay): DTP human tumour cell line panel, 48 h

As for `Cn1c(-c2ccc(/N=N/Nc3ccc(-c4n[nH]c(=S)n4C)cc3)cc2)n[nH]c1=S`, the GI50 (in general, the concentration that inhibits growth by half) is 4.6 µM (inactive) in the assay on OVCAR-8; 3.08 µM (inactive) with MOLT-4; 3.01 µM (inactive) in the assay on SK-MEL-5; 12.8 µM (inactive) in the assay on DU-145; 16.4 µM (inactive) in the assay on LOX IMVI; 4.6 µM (inactive) in the assay on HL-60. Besides, the GI50 in the assay on NCI-H522 was 4.05 µM (inactive); with MDA-MB-231, 18.8 µM (inactive); in the assay on IGROV-1, 10.2 µM (inactive); with ACHN, 1.99 µM (inactive); with UO-31, 2.85 µM (inactive); with U-251, 13.2 µM (inactive). For the same compound, the GI50 was 20.2 µM (inactive) in the assay on SK-OV-3; > 100 µM (inactive) in the assay with SN12C; 12.1 µM (inactive) in the assay with MCF7; > 100 µM (inactive) in the assay on PC-3; 5.36 µM (inactive) in the assay on NCI-H226; > 100 µM (inactive) with SW-620. Also, the GI50 in the assay with HOP-62 was 20.3 µM (inactive).

Turning to `CCOC(=O)NC(Nc1cccc(F)c1)(C(F)(F)F)C(F)(F)F`, the GI50 in the assay with OVCAR-8, with MOLT-4, in the assay with SK-MEL-5, in the assay on DU-145, in the assay with LOX IMVI and in the assay with HL-60 was > 100 µM (inactive) each time. In addition, the GI50 is > 100 µM (inactive) with NCI-H522; > 100 µM (inactive) in the assay with MDA-MB-231; > 100 µM (inactive) in the assay with IGROV-1; > 100 µM (inactive) in the assay with ACHN; 4.94 µM (inactive) in the assay with UO-31; > 100 µM (inactive) in the assay on U-251. For the same compound, the GI50 in the assay on SK-OV-3, with SN12C, in the assay with MCF7, in the assay with PC-3, in the assay with NCI-H226 and in the assay with SW-620 was > 100 µM (inactive) in each case. Besides, the GI50 in the assay with HOP-62 and in the assay on KM12 was > 100 µM (inactive) in each case.

As for `CN(C)CCNc1ccc2c(=O)n(CCN(C)C)c(=O)n3c4ccc(O)cc4c(=O)c1c23`, the GI50 in the assay on OVCAR-8 is < 0.01 µM (active); in the assay with MOLT-4, < 0.01 µM (active); with SK-MEL-5, < 0.0115 µM (active); in the assay with DU-145 it was < 0.01 µM (active); in the assay on LOX IMVI, < 0.0105 µM (active); in the assay with HL-60, < 0.01 µM (active). In addition, the GI50 in the assay on NCI-H522 is < 0.01 µM (active); with MDA-MB-231, < 0.0395 µM (active); in the assay with IGROV-1, 0.0144 µM (active); in the assay with ACHN, < 0.01 µM (active); with UO-31, < 0.0148 µM (active); with U-251 it was < 0.0109 µM (active). Also, the GI50 with SK-OV-3 was < 0.022 µM (active); with SN12C it was 0.0103 µM (active); with MCF7, < 0.01 µM (active); in the assay on PC-3 it was < 0.0491 µM (active); with NCI-H226 it was < 0.01 µM (active); in the assay with SW-620, < 0.01 µM (active). Besides, the GI50 was < 0.01 µM (active) in the assay with HOP-62 and 0.122 µM (active) in the assay on KM12.

For the compound `O=c1[nH]c2cc3cccnc3c(Cl)c2nc1CBr`, the GI50 in the assay with OVCAR-8 is 17.9 µM (inactive); in the assay with MOLT-4, 8.97 µM (inactive); with SK-MEL-5, 17.5 µM (inactive); with DU-145, 15.6 µM (inactive); in the assay on LOX IMVI, 13.9 µM (inactive); in the assay on HL-60, 20.3 µM (inactive). Moreover, the GI50 in the assay on NCI-H522 was 11 µM (inactive); in the assay with MDA-MB-231, 15.9 µM (inactive); in the assay on IGROV-1, 2.92 µM (inactive); in the assay on ACHN, 7.4 µM (inactive); with UO-31 it was 10.5 µM (inactive); with U-251 it was 15.4 µM (inactive). For the same compound, the GI50 in the assay on SK-OV-3 is 26 µM (inactive); in the assay on SN12C, 14 µM (inactive); in the assay on MCF7, 10.1 µM (inactive); with PC-3 it was 15.7 µM (inactive); in the assay on NCI-H226 it was 19.1 µM (inactive); in the assay with SW-620, 11.4 µM (inactive). Further, the GI50 with HOP-62 and with KM12 was 15.5 µM (inactive) in each case.

As to `Clc1cc(-c2ccccc2)nc2ccccc12`, the GI50 in the assay with OVCAR-8 was 59.7 µM (inactive); in the assay with MOLT-4, 22.1 µM (inactive); in the assay on SK-MEL-5, 18.1 µM (inactive); in the assay with DU-145, 40.6 µM (inactive); in the assay with LOX IMVI it was 40 µM (inactive); in the assay with HL-60, 22.5 µM (inactive). The GI50 in the assay on NCI-H522 is 17 µM (inactive); in the assay on MDA-MB-231 it was 35.4 µM (inactive); in the assay on IGROV-1 it was 15.1 µM (inactive); with ACHN, 38.5 µM (inactive); in the assay with UO-31, 32.9 µM (inactive); in the assay with U-251 it was 35.4 µM (inactive). Also, the GI50 was > 100 µM (inactive) with SK-OV-3; 41.1 µM (inactive) in the assay with SN12C; 23.7 µM (inactive) in the assay with MCF7; 24.8 µM (inactive) in the assay with PC-3; 28.4 µM (inactive) in the assay with NCI-H226; 43.6 µM (inactive) with SW-620. Further, the values for the GI50 in the assay with HOP-62 and in the assay with KM12 were > 100 µM (inactive) and 28.1 µM (inactive), respectively.

For `O=[N+]([O-])c1ccc(N/N=C/c2ccc(OCCCCCCCCCCCO)cc2)c([N+](=O)[O-])c1`, the GI50 in the assay with OVCAR-8 was 2.71 µM (inactive); in the assay with MOLT-4, 29.3 µM (inactive); in the assay on SK-MEL-5 it was 1.77 µM (inactive); in the assay on DU-145, 19.7 µM (inactive); in the assay with LOX IMVI, 7.64 µM (inactive); with HL-60, 5.56 µM (inactive). Further, the GI50 in the assay with NCI-H522 is 2.35 µM (inactive); with MDA-MB-231 it was 35.2 µM (inactive); in the assay with IGROV-1 it was 6.05 µM (inactive); in the assay with ACHN it was 9.2 µM (inactive); with UO-31 it was 7.35 µM (inactive); in the assay on U-251 it was 2.37 µM (inactive). Moreover, the GI50 in the assay with SK-OV-3 was 4.24 µM (inactive); with SN12C it was 3.24 µM (inactive); in the assay with MCF7, 6.05 µM (inactive); in the assay with PC-3, 2.45 µM (inactive); in the assay with NCI-H226, 6.37 µM (inactive); with SW-620, 4.84 µM (inactive). Besides, the GI50 with HOP-62 was 4.39 µM (inactive); with KM12 it was 2.75 µM (inactive).

As to `CC(CO)(CO)N1C(=O)C2C3c4ccccc4C(c4ccccc43)C2C1=O` (stereo not given), the GI50 was > 100 µM (inactive) with OVCAR-8; > 100 µM (inactive) with MOLT-4; > 100 µM (inactive) with SK-MEL-5; 50.4 µM (inactive) in the assay on DU-145; > 100 µM (inactive) in the assay on HL-60; > 100 µM (inactive) in the assay with NCI-H522. Also, the GI50 in the assay with MDA-MB-231 is 45.8 µM (inactive); in the assay with IGROV-1, > 100 µM (inactive); with ACHN it was > 100 µM (inactive); in the assay on UO-31, 65.2 µM (inactive); in the assay with U-251, > 100 µM (inactive); in the assay on SK-OV-3, > 100 µM (inactive). The GI50 in the assay with SN12C, in the assay with MCF7, in the assay with PC-3, in the assay on NCI-H226, in the assay with SW-620 and in the assay on HOP-62 was > 100 µM (inactive) each time. For the same compound, the GI50 in the assay with KM12 was > 100 µM (inactive).

Regarding `CC(NNC(=O)c1ccc[n+]([BH2-]C#N)c1)c1ccccc1` (stereo not given), the GI50 in the assay with OVCAR-8 is > 100 µM (inactive); in the assay on MOLT-4 it was 38.3 µM (inactive); in the assay on SK-MEL-5 it was > 100 µM (inactive); in the assay on DU-145, > 100 µM (inactive); in the assay with LOX IMVI it was > 100 µM (inactive); in the assay with HL-60 it was 86.1 µM (inactive). In addition, the GI50 with NCI-H522, in the assay on MDA-MB-231, in the assay on IGROV-1, in the assay on ACHN, with UO-31 and in the assay with U-251 was > 100 µM (inactive) each time. Besides, the GI50 in the assay on SN12C, with MCF7, with PC-3, with NCI-H226, in the assay on SW-620 and in the assay with HOP-62 was > 100 µM (inactive) each time. Besides, the GI50 in the assay on KM12 is > 100 µM (inactive).

In the case of `COc1cc2c(/C=C3/C(=O)Nc4ccc(O)cc43)c(Cl)n(Cc3ccccc3)c2cc1C`, the GI50 in the assay on OVCAR-8 was 1.43 µM (inactive); in the assay on MOLT-4, 1.13 µM (inactive); in the assay with SK-MEL-5, 0.266 µM (active); with DU-145, 1.16 µM (inactive); in the assay on LOX IMVI, 0.558 µM (active); in the assay with HL-60 it was 0.306 µM (active). The GI50 in the assay with NCI-H522 is 1.22 µM (inactive); in the assay with MDA-MB-231, 6 µM (inactive); in the assay on IGROV-1 it was 0.682 µM (active); in the assay with ACHN, 0.628 µM (active); in the assay on UO-31, 3.76 µM (inactive); in the assay on U-251 it was 0.69 µM (active). Moreover, the GI50 in the assay on SK-OV-3 is 0.817 µM (active); in the assay on SN12C, 6.17 µM (inactive); with MCF7 it was 1.18 µM (inactive); in the assay with PC-3, 0.897 µM (active); in the assay with NCI-H226, 0.948 µM (active); in the assay with SW-620, 0.433 µM (active). Besides, in the assay with KM12, the GI50 was 0.265 µM (active).

As for `Cc1ccccc1NC(=O)C(=O)Cc1cnc2ccccc2n1`, the GI50 in the assay with OVCAR-8, with MOLT-4, in the assay on SK-MEL-5, in the assay on DU-145, with LOX IMVI and with HL-60 was > 100 µM (inactive) throughout. In addition, the GI50 with NCI-H522, in the assay with MDA-MB-231, in the assay with IGROV-1, with ACHN, with UO-31 and in the assay on U-251 was > 100 µM (inactive) each time. In addition, the GI50 in the assay on SK-OV-3, in the assay with SN12C, with MCF7, in the assay on PC-3, in the assay with NCI-H226 and with SW-620 was > 100 µM (inactive) each time. Further, the GI50 in the assay with KM12 was > 100 µM (inactive).
